What was measured:
[1] = test system: dog anaesthetized with nembutal; experiment: Blood flow in thoracic aorta (cardiac output), vertebral artery (cerebral flow) and femoral artery (musculocutaneous peripheral flow), electromagnetic flow measurement, anaesthetized dog; type: in vivo; conditions: 2 mg/kg animal body weight, intravenous; for increase in the femoral flow: femoral artery; for increase in the cardiac flow: thoracic aorta; for increase in the cerebral flow (in words): vertebral artery; for duration of the increase of the cerebral circulation: increase by 30 to 40%
Method: The measurements were carried out by means of periarterial probes according to the principle of electromagnetic flow measurement. The general experimental conditions have already been described in the Literature (D. WELLENS and E. WAUTERS, Arch.Int.Pharmacod.171/1,(1968), 246). The medicament was administered by intravenous route.
The administration of compounds according to the invention, namely the 2-chloro-4-isopropylamino-thieno[3,4-d]pyrimidine monohydrochloride (compound A), the 2-chloro-4-morpholino-thieno[3,4-d]pyrimidine monohydrochloride (compound B), the 2-chloro-4-(3-methyl-morpholino)-thieno[3,4-d]pyrimidine monohydrochloride (compound C), the 2-n-propylamino-4-isopropylamino-thieno[3,4-d]-pyrimidine monomaleate (compound D) and the 2-n-propyl-4-isopropylamino-thieno[3,4-d]pyrimidine mono-maleate (compound E) brought about the following effects under these conditions: […]

[2] = Intravenous lethal dose (LD50) in rat; conditions: in vivo, solvent: A propylene glycol + water, B polyethylene glycol + ethanol, C, F, G water, D glycofurol
Method: (§1) The intravenously administered lethal doses (LD50) were determined in rat and mouse. For compounds A to G mentioned above, the recorded results, expressed in mg of compound per kg of animal body weight, are given in the following Table: […]

[3] = Intravenous lethal dose (LD50) in mouse; conditions: in vivo, solvent: C water, D glycofurol, E polyethylene glycol
Method: as §1

[4] = test system: rabbit, in morphinic respiratory depression; experiment: Respiratory analeptic action in morphinic respiratory depression; type: in vivo; conditions: 2,5 mg of free base/kg animal body weight

| Structure (SMILES) | increase in the femoral flow [1] | increase in the cardiac flow [1] | increase in the cerebral flow (in words) [1] | LD50 [2] [mg/kg] | LD50 [3] [mg/kg] | duration of the increase of the cerebral circulation [1] | respiratory analeptic effect relative to diethylnicotinamide [4] |
| --- | --- | --- | --- | --- | --- | --- | --- |
| CC(C)Nc1nc(Cl)nc2cscc12.Cl [A, 2-chloro-4-isopropylamino-thieno[3,4-d]pyrimidine monohydrochloride] | appreciable increase | appreciable increase | appreciable increase | 65 |  |  |  |
| Cl.Clc1nc(N2CCOCC2)c2cscc2n1 [B, 2-chloro-4-morpholino-thieno[3,4-d]pyrimidine monohydrochloride] | appreciable increase | appreciable increase | appreciable increase | 130 |  |  |  |
| CC1COCCN1c1nc(Cl)nc2cscc12.Cl (stereo not shown) [C, 2-chloro-4-(3-methyl-morpholino)-thieno[3,4-d]pyrimidine monohydrochloride] | marked increase | appreciable increase | marked increase | 109 | 117 | at least 40 minutes |  |
| CCCNc1nc(NC(C)C)c2cscc2n1.O=C(O)/C=C\C(=O)O [D, 2-n-propylamino-4-isopropylamino-thieno[3,4-d]-pyrimidine monomaleate] | marked increase | appreciable increase | marked increase | 25.5 | 21 | at least 40 minutes |  |
| CCCc1nc(NC(C)C)c2cscc2n1.O=C(O)/C=C\C(=O)O [E, 2-n-propyl-4-isopropylamino-thieno[3,4-d]pyrimidine mono-maleate] | appreciable increase | appreciable increase | appreciable increase |  | 23 |  |  |
| CCOc1nc(NC(C)C)c2cscc2n1.Cl [F, 2-ethoxy-4-isopropylamino-thieno[3,4-d]pyrimidine monohydrochloride] |  |  |  | 49 |  |  | equivalent to that produced by a six times higher dose of diethylnicotinamide |
| CCCNc1nc(OCC)nc2cscc12.Cl [G, 2-ethoxy-4-n-propylamino-thieno[3,4-d]pyrimidine monohydrochloride] |  |  |  | 42 |  |  | equivalent to that produced by a six times higher dose of diethylnicotinamide |
